{"source": "patent US11253507B2", "about": "(Singapore Health Services PTE LTD, priority 2017, dated 2022)", "key": {"C57BL/6J mice": {"test_system": "C57BL/6J mice", "assay": "Spectacle lens-induced myopia (−15 D lens) model, ocular biometry (axial length, refraction) after 0.01% atropine pre-treatment", "type": "in vivo", "conditions": "for Change in AL, Avg +/− SEM: Group 2 mean (n=7), 0.01% atropine pre-treatment for 2 weeks", "experimental": "Animals: Three weeks old C57BL/6J mice were purchased from InVivos, Singapore and were held at the animal holding unit of SingHealth Experimental Medicine Centre. The experimental animals were housed individually in standard mouse cages at 25° C. on a schedule of 12:12 h of light on (325 lx) and off (0 lx), with mouse pellets and water available ad libidum. All the procedures performed in this study complied with the Association of Research in Vision and Ophthalmology (ARVO) Statement for the Use of Animals in Ophthalmic and Vision Research and were approved by SingHealth IACUC. Both the eyes of each animal were screened for the ophthalmic abnormalities, such as corneal opacities and anterior polar cataracts.\nMouse model of experimental myopia: Spectacle lens-induced myopia model was established by placing −15 D hard lens on the right eye of the animal, which served as the experimental eye, at post-natal day 35. Briefly, a −15 D lens (PMMA spectacle lens in blue tint, radius of outer curvature 8.5, inner curvature 8 mm, lens thickness 0.5 mm, Flexilens, India) was glued to an annulus (with 8 mm base curve) of Velcro. This mating piece was then attached to the Velcro that had been previously glued to the hair around the right experimental eye using a cyanoacrylate (Super Glue gel, UHU, Germany). This set up ensures that an air gap of 1.5 mm existed between the back part of the lens and the anterior surface of the cornea, so that the contact lens optically acted as a spectacle lens. The right eye of naïve group was attached with plano lens and acted as a negative control in the experimental study. Both the eyes in each animal were examined daily for any infection and the lenses were also cleaned regularly in dim red light. Left eyes were kept uncovered and were not used for any ocular biometry measurement in this study. Elizabethan collars made from thin plastic were fitted around the neck of each mouse upon lens-induction. This was done so as to prevent the mice from removing their lenses. Food pellets were placed on the floor of the cage to make eating easier. This strategy has also been followed previously by other groups doing mouse model of lens-induced myopia (Schaeffel et al., 2004).\nTreatment protocols: A total of 27 mice were divided into 4 different groups as mentioned in Table 1, below. […] 7 μL of drug was administered topically to the right eye in dim red light at the same time each day. This was followed by lens (either −15 D or plano) induction on post-natal day 35, that was kept attached until day 49.\n(§1) Ocular biometry such as axial length (AL) and refraction measurements were measured as described in Example 2. The measurements were done just before and 2 weeks after lens-induction, at days 35 and 49, respectively. The data was analyzed using the GraphPad Prism software version 7.02. Changes in AL and refraction between any two groups were analyzed using independent unpaired t-tests. A difference at p value<0.05 was considered statistically significant. Data are reported as mean+/−SEM. The body weights were recorded at post-natal days 22, 35 and 49."}, "[1]": {"assay": "Body weights in the lens-induced myopia study", "type": "in vivo, mice", "conditions": "0.01% atropine topical; post-natal days 22, 35 and 49", "experimental": "as §1, with “49. […] Changes in AL and refraction at day 49 relative to measurements at day 35 are shown in FIG. 3A and FIG. 3B, respectively.” for “49.”"}, "B6J (Mus musculus) mice": {"test_system": "B6J (Mus musculus) mice", "assay": "Murine myopia model (−10 D lens), atropine sulfate eye drops prior to inducing myopia, ocular biometry", "type": "in vivo", "experimental": "Animals: Breeding pair B6J (Mus musculus) mice were obtained from Jackson Lab and produced offspring. Naive control animals were housed in groups of 6 while experimental animals were housed individually in standard mouse cages after 21 days of age at 25° C. on a schedule of 12:12 h of light on and off with mouse pellets and water available ad libidum. Approval was obtained from the SingHealth Institutional Animal Care and Use of Committee (IACUC) and all procedures performed in this study complied with the Association of Research in Vision and Ophthalmology (ARVO) Statement for the Use of Animals in Ophthalmology and Vision Research.\nMurine Myopia Model: A −10 D contact lens (PMMA Contact Lens in Grey Tint, 8.5 mm diameter, 8 mm base curve, refractive Index: 1.43, axial thickness: 0.5 mm) was placed over the right eye on day 21 by gluing to an annulus of velcro, and then attaching to a matching piece of velcro that had been previously sutured to the skin around the eye. The spectacle lenses were cleaned daily in dim light and left eyes were uncovered and served as controls. […]\nOcular biometry assessment: Refractions and biometry measurements were recorded every week until the end of the study. Axial length was measured with in vivo Optic Low Coherence Interferometry (OLCI-AcMaster). Refraction was measured by automated eccentric photorefractor. […]"}, "patients": {"test_system": "patients", "assay": "Adverse effects of treatment with very low concentration atropine composition (pupil dilation, loss of accommodation)", "type": "in vivo, human", "conditions": "composition with very low concentration of atropine (less than 0.025%, e.g. 0.01%); mean +/− SD", "text": "The pupil dilation associated with the treatment is often no greater than 2 mm, e.g., no greater than 1.9 mm, no greater than 1.8 mm, no greater than 1.7 mm, no greater than 1.5 mm, or no greater than 1.49 mm. Typically, patients treated with the composition disclosed above may experience pupil dilation of 0.74+/−0.75 mm. The loss of accommodation associated with the treatment is also minimal, typically no greater than 10 D, e.g., no greater than 9 D, no greater than 8.5 D, no greater than 8.8 D, or no greater than 8 D. Typically, patents treated with the composition disclosed above may experience a loss of accommodation of 4.6+/−4.2 D."}, "myopic children": {"test_system": "myopic children", "conditions": "0.01% atropine daily, cited from earlier work"}, "[2]": {"conditions": "Group 2, 0.01% atropine pre-treatment day 22-35, 2 weeks after −15 D lens induction, individual mice"}, "[3]": {"conditions": "Group 2, 0.01% atropine pre-treatment, day 49 relative to day 35, −15 D lens, individual mice"}}, "note": "Values joined by “and” are separate entries in the source; they are usually repeats but may differ in a detail not shown here. Identical values can stand only once."}
{"molecule": "CN1[C@@H]2CC[C@H]1C[C@@H](OC(=O)C(CO)c1ccccc1)C2", "note": "(stereo partly shown) [Atropine, atropine]", "values": [{"measurement": "Reduction of the increase in AL as compared to vehicle pre-treated myopic eyes", "setting": "C57BL/6J mice; 0.01% atropine topical for 2 weeks before lens-induction, two-tailed p-value=0.1557", "result": "~15", "unit": "%"}, {"measurement": "Refraction at D35", "setting": "C57BL/6J mice; Group 2, 0.01% atropine 7 μL topical daily, day 22-35, right eye, just before −15 D lens induction, individual mice", "result": "7.44 Diopter and 3.71 Diopter and 7.66 Diopter and 5.96 Diopter and 5.29 Diopter and 5.43 Diopter and 8.34 Diopter"}, {"measurement": "AL at D35", "setting": "C57BL/6J mice; Group 2, 0.01% atropine 7 μL topical daily, post-natal day 22-35, right eye, just before −15 D lens induction, individual mice", "result": "3.189 mm and 3.159 mm and 3.195 mm and 3.214 mm and 3.297 mm and 3.250 mm and 3.269 mm"}, {"measurement": "AL at D49", "setting": "C57BL/6J mice; [2]", "result": "3.268 mm and 3.238 mm and 3.277 mm and 3.340 mm and 3.374 mm and 3.335 mm and 3.386 mm"}, {"measurement": "Refraction at D49", "setting": "C57BL/6J mice; [2]", "result": "5.22 Diopter and −1.85 Diopter and 6.30 Diopter and 6.26 Diopter and 6.27 Diopter and 4.17 Diopter and 8.14 Diopter"}, {"measurement": "Change in AL", "setting": "C57BL/6J mice; [3]", "result": "0.079 mm (2×) and 0.082 mm and 0.126 mm and 0.077 mm and 0.084 mm and 0.117 mm"}, {"measurement": "Change in refraction", "setting": "C57BL/6J mice; [3]", "result": "−2.22 Diopter and −5.57 Diopter and −1.37 Diopter and 0.30 Diopter and 0.99 Diopter and −1.26 Diopter and −0.20 Diopter"}, {"measurement": "Change in AL, Avg +/− SEM", "setting": "C57BL/6J mice; day 49 relative to day 35, −15 D lens", "result": 0.092, "unit": "mm"}, {"measurement": "Change in AL, Avg +/− SEM", "setting": "C57BL/6J mice; day 49 relative to day 35, −15 D lens, listed as atropine", "result": 0.092, "unit": "mm"}, {"measurement": "Impact on body weights", "setting": "[1]", "result": "Neither the drug (atropine and vehicle) nor the lens treatment adversely impacted the body weights"}, {"measurement": "Refractive error (refraction state)", "setting": "B6J (Mus musculus) mice; Atropine sulfate 1% for 2 weeks prior to −10 D lens for 4 weeks, FIG. 1B, p<0.01 vs −10 D lens alone", "result": "remained hyperopic"}, {"measurement": "Effect on axial elongation (axial length)", "setting": "B6J (Mus musculus) mice; Group 2: 1% daily 10 μl topical from day 21 for 2 weeks, then −10 D lens for 4 weeks, FIG. 1A, p<0.01, n=18", "result": "blocked most of the elongation of axial length"}, {"measurement": "Loss of accommodation", "setting": "patients", "result": "4.6+/−4.2 D"}, {"measurement": "Pupil dilation", "setting": "patients", "result": "0.74+/−0.75 mm"}, {"measurement": "Reduction of mean 2-year decline in SE vs placebo", "setting": "myopic children; ATOM1 and ATOM2", "result": "about 58%"}, {"measurement": "Mean 2-year decline in SE", "setting": "myopic children; placebo about −1.2 D (Chia et al.)", "result": "~−0.5", "unit": "D"}]}
